# System: Rhizoctonia solani
# Assay: Soybean seed treatment test against disease caused by Rhizoctonia solani in contaminated soil
# Type: in vivo, Rhizoctonia solani on soybean (variety: Natto shoryu)
# Conditions: seed treatment of soybean; carboxamide compound 0.2 g/100 kg of seeds alone (no sulfoxaflor); cultivated 20 days in soil contaminated by Rhizoctonia solani
# Method: A cyclohexanone solution (100 microL) containing prescribed amount (weight) of a test compound was applied on seeds of soybean (variety: Natto shoryu) (10 g) by using a rotary apparatus for seed treatment (Seed dresser, manufactured by Hans-Ulrich Hege GmbH). One day after the application, plastic pot was filled with soil contaminated by Rhizoctonia solani, and the seeds treated with the test compounds were seeded in the soil and cultivated in a glass-greenhouse for 20 days (hereinafter referred to as “treated plot”). Thereafter, the presence of disease caused by Rhizoctonia solani in the young plants which germinated from each seed was observed and disease severity was calculated according to the following calculation formula (1). On the other hand, seeds of soybean which are not treated as above were cultivated in the same way as above (hereinafter referred to as “non-treated plot”) and the disease severity in the “non-treated plot” was calculated in the same way as the above “treated plot”. On the basis of the above severity in “treated plot” and “non-treated plot”, efficacy in “treated plot” was evaluated according to the following calculation formula (2). […]
smiles,measurement,value
Cc1nn(C)c(C)c1C(=O)Nc1cccc2c1C(C)CC2(C)C (stereo not shown) [carboxamide compound (5)],efficacy (%),15.8%
